Values quoted from earlier work as cited in US11202772B2, “Duloxetine sprinkles” (priority 2016, dated 2021).

CNCCC(Oc1cccc2ccccc12)c1cccs1 (single isomer, unassigned; (+)) [Duloxetine, (+)-N-methyl-3-(1-naphthalenyloxy)-3-(2-thienyl)propan-1-amine]
drug in the dosage hydrolyzed to 1-naphthol (pH 1.0): 50% | drug degrades to 1-naphthol (pH of 2.0, in one hour): 10% | time for 10% degradation (pH of 4.0): up to 63 hours
